Where a SMILES comes first, the peptide text is derived from it. Bridges are numbered along the chain shown (N, C = ends).
Experiments:
hNaV1.1 = hNaV1.1 (Homo sapiens, UniProt P35498); assay: cell-based; assay type: cell-based; settings: N = 4-5; SEM; read-out: IC50 ± SEM, NaV1.1
hNaV1.2 = hNaV1.2 (Homo sapiens, UniProt Q99250); assay: cell-based; settings: N = 3-6; SEM; read-out: IC50 ± SEM, NaV1.2
hNaV1.3 = hNaV1.3 (Homo sapiens, UniProt Q9NY46); assay: cell-based; settings: N = 3-4; SEM; read-out: IC50 ± SEM, NaV1.3
hNaV1.4 = hNaV1.4 (Homo sapiens, UniProt P35499); assay: cell-based; assay type: cell-based; settings: N = 4; SEM; read-out: IC50 ± SEM, NaV1.4
hNaV1.5 = hNaV1.5 (Homo sapiens, UniProt Q14524); assay: cell-based; assay type: cell-based; settings: N = 3-4; read-out: IC50 ± SEM, NaV1.5
hNaV1.6 = hNaV1.6 (Homo sapiens, UniProt Q9UQD0); assay: cell-based; settings: N = 4; SEM; read-out: IC50 ± SEM, NaV1.6
hNaV1.7 [1] = target: T1, hNaV1.7 (Homo sapiens, UniProt Q15858); assay: cell-based; assay type: cell-based; settings: N = 3-4; SEM; read-out: IC50 ± SEM, NaV1.7
T1 sequence (Q15858 whole entry, looked up): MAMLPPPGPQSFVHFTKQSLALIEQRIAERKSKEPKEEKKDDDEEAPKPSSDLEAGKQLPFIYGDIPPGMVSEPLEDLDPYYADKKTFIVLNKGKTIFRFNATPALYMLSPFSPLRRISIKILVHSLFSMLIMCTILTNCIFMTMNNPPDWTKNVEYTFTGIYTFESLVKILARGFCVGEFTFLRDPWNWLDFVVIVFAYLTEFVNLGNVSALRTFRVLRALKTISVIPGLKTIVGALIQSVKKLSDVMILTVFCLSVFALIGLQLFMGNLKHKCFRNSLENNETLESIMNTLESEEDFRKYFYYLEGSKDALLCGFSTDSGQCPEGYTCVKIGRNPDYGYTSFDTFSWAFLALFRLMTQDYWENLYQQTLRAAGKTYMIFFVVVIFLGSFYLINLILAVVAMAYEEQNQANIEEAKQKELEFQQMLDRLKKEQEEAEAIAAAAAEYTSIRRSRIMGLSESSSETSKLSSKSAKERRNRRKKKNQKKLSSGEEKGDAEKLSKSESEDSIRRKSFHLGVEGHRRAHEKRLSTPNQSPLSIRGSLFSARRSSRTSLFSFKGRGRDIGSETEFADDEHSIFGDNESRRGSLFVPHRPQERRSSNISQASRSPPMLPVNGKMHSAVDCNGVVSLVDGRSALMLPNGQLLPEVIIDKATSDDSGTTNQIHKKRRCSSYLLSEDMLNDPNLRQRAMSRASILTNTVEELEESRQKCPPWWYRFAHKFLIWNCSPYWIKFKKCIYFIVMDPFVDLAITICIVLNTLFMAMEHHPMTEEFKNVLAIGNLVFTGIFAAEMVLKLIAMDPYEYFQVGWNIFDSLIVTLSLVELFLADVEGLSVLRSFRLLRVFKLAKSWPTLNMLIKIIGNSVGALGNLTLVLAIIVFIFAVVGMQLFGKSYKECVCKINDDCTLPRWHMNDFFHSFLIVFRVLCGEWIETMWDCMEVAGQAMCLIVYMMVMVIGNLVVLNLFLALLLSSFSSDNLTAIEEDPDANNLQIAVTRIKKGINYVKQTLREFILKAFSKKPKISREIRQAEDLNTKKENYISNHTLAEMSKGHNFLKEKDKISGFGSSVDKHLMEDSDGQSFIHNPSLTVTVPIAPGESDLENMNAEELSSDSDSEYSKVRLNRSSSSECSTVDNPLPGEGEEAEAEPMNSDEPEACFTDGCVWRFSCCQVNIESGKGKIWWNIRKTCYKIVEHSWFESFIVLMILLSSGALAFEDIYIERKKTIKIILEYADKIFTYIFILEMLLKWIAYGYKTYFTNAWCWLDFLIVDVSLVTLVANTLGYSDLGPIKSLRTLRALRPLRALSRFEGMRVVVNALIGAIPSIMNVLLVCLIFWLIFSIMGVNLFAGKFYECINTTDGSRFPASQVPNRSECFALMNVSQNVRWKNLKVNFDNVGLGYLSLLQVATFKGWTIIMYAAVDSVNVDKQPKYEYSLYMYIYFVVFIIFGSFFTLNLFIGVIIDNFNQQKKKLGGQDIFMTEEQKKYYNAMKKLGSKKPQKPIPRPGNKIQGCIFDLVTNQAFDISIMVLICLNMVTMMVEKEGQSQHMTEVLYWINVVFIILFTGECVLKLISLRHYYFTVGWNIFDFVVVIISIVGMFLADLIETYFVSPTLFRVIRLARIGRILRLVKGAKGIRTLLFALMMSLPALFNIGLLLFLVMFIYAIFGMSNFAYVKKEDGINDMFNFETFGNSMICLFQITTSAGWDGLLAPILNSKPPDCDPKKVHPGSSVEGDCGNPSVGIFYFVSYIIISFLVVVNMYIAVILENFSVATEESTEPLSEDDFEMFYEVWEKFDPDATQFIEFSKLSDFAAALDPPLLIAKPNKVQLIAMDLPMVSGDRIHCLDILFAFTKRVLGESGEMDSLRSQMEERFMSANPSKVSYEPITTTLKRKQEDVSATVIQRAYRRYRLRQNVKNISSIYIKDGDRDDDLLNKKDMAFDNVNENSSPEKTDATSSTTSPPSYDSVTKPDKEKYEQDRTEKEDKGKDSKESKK

hNaV1.7 [2] = target: T1, hNaV1.7; assay type: cell-based; settings: SEM

Chain of hNaV1.2 (Q99250 whole entry, looked up): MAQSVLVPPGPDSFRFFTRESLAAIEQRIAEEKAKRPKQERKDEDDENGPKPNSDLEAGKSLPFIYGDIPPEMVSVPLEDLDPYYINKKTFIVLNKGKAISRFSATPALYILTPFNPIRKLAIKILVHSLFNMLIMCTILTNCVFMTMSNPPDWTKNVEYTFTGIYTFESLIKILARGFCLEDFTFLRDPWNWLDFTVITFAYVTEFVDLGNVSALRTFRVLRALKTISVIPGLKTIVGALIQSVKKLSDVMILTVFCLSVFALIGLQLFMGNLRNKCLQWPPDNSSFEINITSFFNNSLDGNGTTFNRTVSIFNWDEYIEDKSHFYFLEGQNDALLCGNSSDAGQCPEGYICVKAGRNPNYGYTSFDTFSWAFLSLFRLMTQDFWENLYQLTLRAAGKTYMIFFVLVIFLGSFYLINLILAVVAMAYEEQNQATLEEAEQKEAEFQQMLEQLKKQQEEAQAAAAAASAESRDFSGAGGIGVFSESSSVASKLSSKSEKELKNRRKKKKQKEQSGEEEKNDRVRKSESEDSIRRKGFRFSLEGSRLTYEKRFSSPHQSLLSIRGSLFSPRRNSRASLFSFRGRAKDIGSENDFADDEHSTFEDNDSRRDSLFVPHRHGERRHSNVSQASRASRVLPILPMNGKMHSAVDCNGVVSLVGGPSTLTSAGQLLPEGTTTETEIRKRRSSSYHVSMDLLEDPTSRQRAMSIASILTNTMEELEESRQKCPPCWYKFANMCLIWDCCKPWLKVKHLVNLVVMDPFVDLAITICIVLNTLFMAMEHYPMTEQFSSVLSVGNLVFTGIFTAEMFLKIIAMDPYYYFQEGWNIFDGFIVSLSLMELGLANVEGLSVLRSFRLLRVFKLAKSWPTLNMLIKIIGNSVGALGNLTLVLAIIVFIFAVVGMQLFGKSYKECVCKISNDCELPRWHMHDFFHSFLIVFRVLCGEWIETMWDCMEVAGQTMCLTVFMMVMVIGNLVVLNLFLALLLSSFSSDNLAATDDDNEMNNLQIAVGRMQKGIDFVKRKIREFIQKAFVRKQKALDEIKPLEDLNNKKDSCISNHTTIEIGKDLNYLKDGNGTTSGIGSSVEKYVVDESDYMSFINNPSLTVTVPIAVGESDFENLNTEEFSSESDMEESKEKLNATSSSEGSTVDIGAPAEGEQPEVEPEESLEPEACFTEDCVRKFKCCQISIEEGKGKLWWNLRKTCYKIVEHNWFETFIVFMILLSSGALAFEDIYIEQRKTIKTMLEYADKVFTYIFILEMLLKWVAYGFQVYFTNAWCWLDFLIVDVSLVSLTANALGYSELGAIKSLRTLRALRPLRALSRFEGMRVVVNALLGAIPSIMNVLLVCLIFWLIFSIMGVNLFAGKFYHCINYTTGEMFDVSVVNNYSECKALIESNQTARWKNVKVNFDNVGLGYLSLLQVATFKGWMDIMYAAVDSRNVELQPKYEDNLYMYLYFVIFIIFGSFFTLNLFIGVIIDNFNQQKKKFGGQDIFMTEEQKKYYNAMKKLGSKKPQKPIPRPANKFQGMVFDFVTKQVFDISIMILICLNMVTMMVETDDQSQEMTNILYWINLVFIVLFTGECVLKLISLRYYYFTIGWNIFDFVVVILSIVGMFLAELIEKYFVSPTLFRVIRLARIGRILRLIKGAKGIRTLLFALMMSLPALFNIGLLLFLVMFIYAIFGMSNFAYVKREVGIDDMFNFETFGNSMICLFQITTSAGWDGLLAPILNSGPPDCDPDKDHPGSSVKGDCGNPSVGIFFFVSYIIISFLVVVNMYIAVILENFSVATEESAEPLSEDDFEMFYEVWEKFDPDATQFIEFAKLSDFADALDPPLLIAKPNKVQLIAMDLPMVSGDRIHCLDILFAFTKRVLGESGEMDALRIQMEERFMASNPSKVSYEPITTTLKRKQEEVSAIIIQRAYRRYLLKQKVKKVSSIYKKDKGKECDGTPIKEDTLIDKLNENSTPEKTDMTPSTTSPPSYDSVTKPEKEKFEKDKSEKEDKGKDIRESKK

Q: For `CC[C@H](C)[C@@H]1NC(=O)CNC(=O)[C@H](CC(C)C)NC(=O)[C@@H](NC(=O)CNC(=O)CN)CSSC[C@@H]2NC(=O)[C@@H]3CSSC[C@@H](C(=O)N[C@@H](CCCCN)C(=O)N[C@@H](Cc4c[nH]c5ccccc45)C(=O)N[C@@H](CCCCN)C(=O)N[C@@H](CC(C)C)C(=O)N[C@@H](Cc4c[nH]c5ccccc45)C(=O)O)NC(=O)[C@H](Cc4c[nH]c5ccccc45)NC(=O)[C@H](CCCNC(=N)N)NC(=O)[C@H](Cc4c[nH]cn4)NC(=O)[C@H](CCCCN)NC(=O)[C@H](CCCCN)NC(=O)[C@H](CO)NC(=O)[C@H](CSSC[C@H](NC(=O)[C@H](CO)NC(=O)[C@H](CO)NC(=O)[C@H](Cc4ccccc4)NC1=O)C(=O)N[C@@H](CC(=O)O)C(=O)N1CCC[C@H]1C(=O)N[C@@H](CCC(=O)O)C(=O)N[C@@H](CC(N)=O)C(=O)N[C@@H](CC(=O)O)C(=O)N[C@@H](CCCCN)C(=O)N3)NC(=O)[C@H](C(C)C)NC(=O)[C@H](CCCNC(=N)N)NC(=O)[C@H](CC(N)=O)NC(=O)[C@H](Cc1ccc(O)cc1)NC2=O` [Tap1a-OPT1] (H-GGCLGIFSSCDPENDKCCYNRVCSKKHRWCKWKLW-OH; disulfide 3-18, 10-23, 17-30), which IC50 (hNaV1.1) is on record?
A: 17 ± 3 nM

Q: And the IC50 (hNaV1.2)?
A: 5 ± 1 nM

Q: And the IC50 (hNaV1.3)?
A: 6 ± 0.5 nM

Q: What about the IC50 (hNaV1.4) of the same compound?
A: 100 ± 19 nM

Q: What about the IC50 (hNaV1.5) of the same compound?
A: > 1000 nM

Q: And the IC50 (hNaV1.6)?
A: 4.6 ± 2.3 nM

Q: And the IC50 (hNaV1.7 [1])?
A: 3 ± 0.7 nM

Q: And the “Kon observed, hNaV1.7” value (hNaV1.7 [2])?
A: 8.60 ± 1.7 × 10^−3 s^−1
